Our source for the ΔGH values is patent publication US4410513A, “Synthetic peptides having pituitary growth hormone releasing activity” (Beckman Instruments, Inc., priority 1981, dated 1983).

Experiment [1] deals with pituitaries. Nature of the experiment: In vitro growth hormone release study (incubated rat pituitaries, GH by RIA). Format: cell-based. The procedure:
Female rats at the CD-1 strain were housed in a constant temperature room at 24° C. with 14 hours light and 10 hours darkness. The rats were fed Purina brand rat chow ab libitum. All studies were started between 0800 and 1000 hours.
Pituitaries were removed from 20 day old female rats. In each polytetrafluoroethylene beaker (10 ml) was incubated two pituitaries at 36° C. in 1 ml of lactated Ringer's solution in a Dubnoff Shaker (90 cycles/min.). All medium in each beaker was removed each hour (e.g., P1, P2, I3, I4, I5) and then fresh medium was added back to each beaker. Each medium removed was assayed for GH, in duplicate, by a standard radioimmunoassay (RIA).
The growth hormone agonist of Example 1 was not added to the incubation mediums employed during the first hour of the incubation period (P1) or to the incubation mediums employed during the second hour of the incubation period (P2). The growth hormone agonist of Example 1 was dissolved in dimethylsulfoxide (DMSO; 10:1, agonist:DMSO), added to each incubation medium employed during the third hour of the incubation period (I3), to each medium employed during the fourth hour of the incubation period (I4) and to each medium employed during the fifth hour of the incubation period (I5). The release of growth hormone was recorded as ΔGH and calculated by subtracting the amount of GH released at P2 from that released at I3, I4, and I5. The agonist activity was determined from the release at I3, I4, and I5.
The procedure set forth in Example 11 with one modification was employed in an in vitro growth hormone release study of the peptide of Example 6 and the results therefrom are set forth in Table XI. The sole modification was the deletion of I5 from the procedure of Example 11.
The procedure set forth in Example 11 with one modification was employed in an in vitro growth hormone release study of the peptide of Example 7 and the results therefrom are set forth in Table XII. The sole modification was the deletion of I5 from the procedure of Example 11.

The test system of experiment [2] is growth hormone release. Nature of the experiment: In vivo growth hormone release study (serum GH by RIA about 15 minutes after intraperitoneal injection). The note with it: 21 day old female rats, serum about 15 minutes after injection, mean of 8 ± SEM, control 4 ± 1. More on the design: species or system rat. The method, then: Female rats of the CD-1 strain were housed in a constant temperature room at 24° C. with 14 hours light and 10 hours darkness. The rats were fed Purina brand rat chow ab libitum. All studies were started between 0800 and 1000 hours.
Each female rat (21 days old; eight rats per dosage level shown in Table XVI) was intraperitoneally injected with a desired dosage of the peptide of Example 1. Approximately 15 minutes after injection, the rat was guillotined. A blood sample was collected from the guillotined rat. The blood sample was centrifuged and a serum sample was collected therefrom. Each serum sample was assayed for GH, in duplicate, by a standard radioimmunoassay (RIA).

Setting [3] is: dosage 1 ng/ml incubation medium, mean of 9 assays (I3, I4, I5 minus P2) ± SEM.
[4] abbreviates: dosage 3 ng/ml incubation medium, mean of 9 assays (I3, I4, I5 minus P2) ± SEM.
Where [5] appears, read: dosage 10 ng/ml incubation medium, mean of 9 assays (I3, I4, I5 minus P2) ± SEM.
Setting [6] is: dosage 30 ng/ml incubation medium, mean of 9 assays (I3, I4, I5 minus P2) ± SEM.
Where [7] appears, read: dosage 100 ng/ml incubation medium, mean of 9 assays (I3, I4, I5 minus P2) ± SEM.
[8] abbreviates: dosage 1,000 ng/ml incubation medium, mean of 9 assays (I3, I4, I5 minus P2) ± SEM.

Non-standard residues stand in square brackets, D forms with d. Residues, ends and D or L forms follow the SMILES beside them.

In the case of `C[C@H](NC(=O)[C@@H](Cc1c[nH]c2ccccc12)NC(=O)[C@@H](N)Cc1c[nH]cn1)C(=O)N[C@@H](Cc1c[nH]c2ccccc12)C(=O)N[C@H](Cc1ccccc1)C(N)=O` [Example 1, H2 -His-D-Trp-Ala-Trp-D-Phe-NH2] (H-H[dW]AW[dF]-NH2), the ΔGH is 206 ng/mL in experiment [1] (setting [3]); 288 ng/mL in experiment [1] (setting [4]); 2,005 ng/ml in experiment [1] (setting [5]); 3,046 ng/ml in experiment [1] (setting [6]); 1 ± 1 ng/mL in experiment [2] (dosage 0.1 (μg/ml serum)); 2 ± 2 ng/mL in experiment [2] (dosage 1.0 (μg/ml serum)). Further, the results for the ΔGH in experiment [2] (dosage 10.0 (μg/ml serum)) and in experiment [2] (dosage 100.0 (μg/ml serum)) were 2 ± 1 ng/mL and 82 ± 18 ng/mL, respectively.
Turning to `C[C@H](NC(=O)[C@@H](Cc1c[nH]c2ccccc12)NC(=O)[C@@H](N)Cc1ccc(O)cc1)C(=O)N[C@@H](Cc1c[nH]c2ccccc12)C(=O)N[C@H](Cc1c[nH]cn1)C(N)=O` [Example 2, H2 -Tyr-D-Trp-Ala-Trp-D-His-NH2] (H-Y[dW]AW[dH]-NH2), the ΔGH in experiment [1] (setting [3]) was -179 ng/mL; in experiment [1] (setting [4]), -192 ng/mL; in experiment [1] (setting [5]), -802 ng/mL; in experiment [1] (setting [6]), 611 ng/mL.
`C[C@H](NC(=O)[C@@H](Cc1c[nH]c2ccccc12)NC(=O)[C@@H](N)Cc1c[nH]cn1)C(=O)N[C@@H](Cc1c[nH]c2ccccc12)C(=O)N[C@H](Cc1ccc(O)cc1)C(N)=O` [Example 3, H2 -His-D-Trp-Ala-Trp-D-Tyr-NH2] (H-H[dW]AW[dY]-NH2): the ΔGH in experiment [1] (setting [3]) is -126 ng/mL; in experiment [1] (setting [5]), -99 ng/mL; in experiment [1] (setting [7]) it was -238 ng/mL; in experiment [1] (setting [8]), 2598 ng/mL.
As for `C[C@H](NC(=O)[C@@H](Cc1c[nH]c2ccccc12)NC(=O)[C@@H](N)Cc1c[nH]cn1)C(=O)N[C@@H](Cc1c[nH]c2ccccc12)C(=O)N[C@H](Cc1c[nH]cn1)C(N)=O` [Example 4, H2 -His-D-Trp-Ala-Trp-D-His-NH2] (H-H[dW]AW[dH]-NH2), the ΔGH in experiment [1] (setting [3]) is -166 ng/mL; in experiment [1] (setting [5]), -369 ng/mL; in experiment [1] (setting [7]), 43 ng/mL; in experiment [1] (setting [8]), 1501 ng/mL.
For the compound `C[C@@H](NC(=O)[C@@H](Cc1c[nH]c2ccccc12)NC(=O)[C@@H](N)Cc1ccc(O)cc1)C(=O)N[C@@H](Cc1c[nH]c2ccccc12)C(=O)N[C@H](Cc1ccccc1)C(N)=O` [Example 6, H2 -Tyr-D-Trp-D-Ala-Trp-D-Phe-NH2] (H-Y[dW][dA]W[dF]-NH2), the ΔGH in experiment [1] (dosage 300 ng/ml incubation medium, I5 deleted, mean of 6 assays (I3, I4 minus P2) ± SEM) was 648 ± 210 ng/mL; in experiment [1] (dosage 3,000 ng/ml incubation medium, I5 deleted, mean of 6 assays (I3, I4 minus P2) ± SEM), 435 ± 143 ng/mL; in experiment [1] (dosage 30,000 ng/ml incubation medium, I5 deleted, mean of 6 assays (I3, I4 minus P2) ± SEM) it was 1136 ± 190 ng/mL.
`CC(=O)N[C@@H](Cc1ccc(O)cc1)C(=O)N[C@H](Cc1c[nH]c2ccccc12)C(=O)N[C@@H](C)C(=O)N[C@@H](Cc1c[nH]c2ccccc12)C(=O)N[C@H](Cc1ccccc1)C(N)=O` [Example 9, CH3 CO-Tyr-D-Trp-Ala-Trp-D-Phe-NH2] (Ac-Y[dW]AW[dF]-NH2): the ΔGH in experiment [1] (setting [5]) was -297 ± 79 ng/mL; in experiment [1] (setting [6]), -118 ± 97 ng/mL; in experiment [1] (dosage 300 ng/ml incubation medium, mean of 9 assays (I3, I4, I5 minus P2) ± SEM), 5 ± 29 ng/mL; in experiment [1] (dosage 3,000 ng/ml incubation medium, mean of 9 assays (I3, I4, I5 minus P2) ± SEM) it was 1594 ± 385 ng/mL; in experiment [1] (dosage 30,000 ng/ml incubation medium, mean of 9 assays (I3, I4, I5 minus P2) ± SEM), 1607 ± 250 ng/mL.
